This is an account of results in US6291442A, “Pharmacological modulators of voltage-gated potassium ion channels” (The General Hospital Corporation, priority 1999, dated 2001).

The subject of data set [1] is Drosophila Shaker H4 potassium ion channels. The data set can be described thus: Patch voltage clamp recording, time course of channel closure (deactivation). Conditions: for Approximate Increase in Time Course of Closure: shaker h4 channel patch, 500 µM; for effect on the closing of the ion channel: FIG. 3 and 4; for Approximate Decrease in Time Course of Closure: test compound 0.5 mM, compared to closure in the absence of test compound. An excerpt: Standard patch recording methods were used to record potassium channel currents from the transfected cells (Hamill, O. P., Marty, A., Neher, E., Sakmann, B., and Sigworth, F. J., Pfluegers Arch(1981), 391:85, the entire teachings of which are incorporated herein by reference). If expression was sufficiently high, the excised inside-out or excised outside-out recording configurations was used; otherwise the whole cell recording configuration was used. […] Standard extracellular saline was used in the recording pipette, and standard intracellular saline was perfused on the exposed side, or bath side, of the membrane. Test compounds were added to the intracellular saline at the concentration specified.
For recording the time course of channel activation and deactivation, voltage clamp steps were applied from a resting potential of -80 to -100 mV to an activation potential of between -60 and +60 mV; after these activating steps (lasting 5-100 ms in duration), the voltage was returned to a potential of between -120 and -60 mV to monitor the time course of closure, or de-activation, of the channels. Standard experimental solutions contained, in mM: 150 NaCl, 10 KCl, 3 CaCl2, 1 MgCl2, and 10 HEPES, at pH 7.4 in the pipette solution; and 160 KCl, 0.5 MgCl2, 1 EGTA, and 10 HEPES, at pH 7.4 in the bath solution. Solutions with Cd^2+ contained no EGTA.
In Table I, II and III, the time course of closure of Drosophila Shaker H4 potassium ion channels was measured in the presence of a test compound and compared to the time course of closure in the absence of a test compound.

Data set [2] relates to Shaker class voltage-gated potassium ion channels. As for the experimental part:
At a depolarizing pulse of +60 mV, the steady state blockade of current caused by channel-blockers was measured as the current in the presence of the channel-blocker divided by the current in the absence of the channel-blocker.

Data set [3] concerns Drosophila Shaker H4 potassium ion channels. The data set is described as follows: Application to intracellular (inside-out patch) versus extracellular (outside-out patch) side of the membrane. It counts as cell-based. The conditions noted are these: inside-out versus outside-out excised patch. As for the experimental part:
Compounds were applied to the intracellular side of the cell membrane by adding the compound to the solution bathing the exposed face of an excised inside-out patch containing Drosophila Shaker H4 potassium ion channels. Application to the extracellular side of the membrane was performed by adding the compound to the solution bathing the exposed face of an excised outside-out patch containing Drosophila Shaker H4 potassium ion channels.

Where [4] appears, read: inside-out excised patch voltage clamp.

Each structure is given as a SMILES string. “Also recorded” adds a separate entry of the source. Like-named read-outs stand apart in the source and are kept apart here. Some results are limits rather than exact numbers.

Take `Nc1cccc(C(=O)O)c1Oc1ccc(Cl)cc1` [2-(4-chlorophenoxy)-3-aminobenzoic acid]: in data set [1], the “Approximate Increase in Time Course of Closure” value (“Approximate Increase” for short) is 9 X.

Turning to `O=C(O)c1ccccc1[S+]([O-])c1ccccc1` (centres unmarked) [1-carboxydiphenyl sulfoxide], the “Approximate Increase” value in data set [1] was 2.2 X.

For the compound `O=C(O)c1ccccc1C(=O)c1ccc(Cl)c([N+](=O)[O-])c1` [2-(4-chloro-3-nitrobenzoyl)benzoic acid], the “Approximate Increase” value in data set [1] stood at 2 X.

On to `O=C(O)c1ccc([N+](=O)[O-])cc1Oc1cccc([N+](=O)[O-])c1`, for which the “effect on the maximal level of outward or inward current” value in data set [1] (inside-out excised patch voltage clamp, FIG. 3) is listed as “little or no effect”. Besides, the “effect on the closing of the ion channel” value in data set [1] (setting [4]) is reported as “slows the closing of the ion channel”.

As to `Nc1cc(Cl)ccc1Nc1ccccc1C(=O)O` [N-(2-amino-4-chlorophenyl) anthranilic acid], the “Approximate Decrease in Time Course of Closure” value (from here on “Approximate Decrease”) in data set [1] was 2.4 X.

For the compound `CC(C(=O)O)c1cccc(Oc2ccccc2)c1` (centres unmarked) [fenoprofen, reference compound], in data set [1], the “Approximate Increase” value came out at 2.2 X.

Turning to `Nc1ccccc1C(=O)c1ccccc1C(=O)O` [2-aminobenzophenone-2-carboxylic], the “Approximate Increase” value in data set [1] is 2 X.

In the case of `O=C(O)c1ccccc1Oc1cccc([N+](=O)[O-])c1` [2-(3-nitrophenoxy)benzoic acid], the “Approximate Increase” value in data set [1] is recorded as 3-4 X.

As to `CC[N+](CC)(CC)CC` [tetraethylammonium], the “steady state blockade of current” value in data set [2] (tetraethylammonium 5 mM alone, depolarizing pulse +60 mV) was determined as 15%; in data set [2] (tetraethylammonium 5 mM in the presence of 10 mM 2-benzoylbenzoic acid, +60 mV), 16%.

On to `Cc1c(C)c(C)c(C(=O)c2ccccc2C(=O)O)c(C)c1C` [2-(2,3,4,5,6-pentamethylbenzoyl) benzoic acid], for which the “Approximate Decrease” value in data set [1] was found to be 2 X.

`COc1cccc(Oc2c(OC)cccc2C(=O)O)c1` [2-(3-methoxyphenoxy)-3-methoxybenzoic acid]: the “Approximate Increase” value in data set [1] is less than 2 X.

Consider `Cc1ccc(Sc2ccccc2C(=O)O)c(S(N)(=O)=O)c1` [2-sulfamide-4-methyl-2'-carboxydiphenyl sulfide], for which the “Approximate Increase” value in data set [1] is reported as less than 2 X.

On to `Nc1ccc(C(=O)c2ccccc2C(=O)O)cc1[N+](=O)[O-]` [2-(4-amino-3-nitro-benzoyl)benzoic acid], for which, in data set [1], the “Approximate Increase” value is recorded as no less than 2 X.

Turning to `CC(=O)Nc1ccc(C=Cc2ccc([N+](=O)[O-])cc2S(=O)(=O)O)c(S(=O)(=O)O)c1` [4-nitro-4'-acetamide-2,2'-disulfonate stilbene], the “Approximate Increase” value in data set [1] is on record as 2 X.

On to `Nc1cc(C(=O)c2ccccc2C(=O)O)ccc1Cl` [2-(3-amino-4-chlorobenzoyl)benzoic acid], for which the “Approximate Increase” value in data set [1] is recorded as 2 X.

On to `CCCCN(CCCC)c1ccc(C(=O)c2ccccc2C(=O)O)c(O)c1` [2-(4-dibutylamino-2-hydroxybenzoyl) benzoic acid], for which the “Approximate Decrease” value in data set [1] was 6.4 X.

As for `O=C(O)c1ccccc1C(=O)c1ccccc1` [2-benzoylbenzoic acid], the “Approximate Increase” value in data set [1] was 2.5 X. For the same compound, the “side of the cell membrane from which the compound is effective” value in data set [3] is “effective from only one side of the membrane; also recorded: effective only from the intracellular side of the cell membrane”.

On to `O=C(O)c1cccnc1Nc1cccc(C(F)(F)F)c1` [niflumic acid, reference compound], for which, in data set [1], the “Approximate Increase” value was 2.4 X.

With `COc1cccc(C(=O)c2cc(OC)ccc2C(=O)O)c1` [4-methoxy-2-(3-methoxy-benzoyl)-benzoic acid], the “Approximate Decrease” value in data set [1] is listed as no more than 2 X.

For the compound `O=C(O)c1ccc(Br)cc1Oc1ccccc1` [4-bromo-2-(phenoxy) benzoic acid], the “Approximate Decrease” value in data set [1] was no less than 2 X.

As to `CCOc1ccc(Nc2cc([N+](=O)[O-])ccc2C(=O)O)cc1` [N-(4-ethoxyphenyl)-4-nitro anthranilic acid], the “effect on the closing of the ion channel” value in data set [1] (setting [4]) was “speeds the closing of the ion channel”. In data set [1] (inside-out excised patch voltage clamp, FIG. 4), the “reduction in the maximal level of outward or inward current” value is recorded as less than 20%. Also, in data set [1], the “Approximate Decrease” value is recorded as 5-10 X.

As for `O=C(O)c1ccccc1C(=O)c1ccc(Cl)cc1` [2-(4-chlorobenzoyl)benzoic acid], in data set [1], the “Approximate Increase” value is 2 X.

Consider `CC(C(=O)O)c1ccc2c(c1)[nH]c1ccc(Cl)cc12` (centres unmarked) [Carprofen, reference compound], for which the “Approximate Decrease” value in data set [1] is listed as 3.2 X.

Consider `COc1ccc(Oc2c(C(=O)O)cccc2[N+](=O)[O-])cc1` [2-(4-methoxyphenoxy)-3-nitrobenzoic acid], for which the “Approximate Increase” value in data set [1] came out at 1.5 X.

With `O=C(O)c1c(Cl)c(Cl)c(Cl)c(Cl)c1C(=O)c1ccccc1` [2-benzoyl-3,4,5,6-tetrachloro-benzoic], the “Approximate Decrease” value in data set [1] is reported as no less than 2 X.

Take `Cc1ccc(C(=O)c2ccccc2C(=O)O)cc1` [2-(p-toluoyl)benzoic]: the “Approximate Increase” value in data set [1] is 2 X.

Turning to `Cc1ccc(Cl)c(Nc2ccccc2C(=O)O)c1Cl` [Meclofenamic acid, reference compound], the “Approximate Decrease” value in data set [1] is recorded as 2.5 X.
